Data on 2 compounds can be found in BindingDB's records for doi:10.1021/jm00398a002 (University of Kansas, 1988).

The experiment concerns the target Adenosylhomocysteinase (Bos taurus). Nature of the experiment: Time course of inactivation of bovine liver S-adenosyl-homocysteine hydrolase.

pKi: −log10 of the molar value.

As to `Nc1ncnc2c1ncn2[C@@H]1C=C[C@@H](O)[C@H]1O`, the pKi was 7.39.

Turning to `Nc1nccc2c1ncn2C1C=C[C@@H](O)[C@H]1O` (some centres not stated), the pKi was 7.46.
